Experimental data taken from US10287251B2, “Pyrazole derivative or pharmaceutically acceptable salt thereof” (KISSEI PHARMACEUTICAL CO., LTD., priority 2015, dated 2019).

Experiments:
TRPM8 = target: T1, TRPM8 (Rattus norvegicus, UniProt Q8R455); experiment: Confirmation test of inhibitory effects on icilin-induced wet-dog shakes; format: in vivo; conditions: female SD rats, icilin 1 mg/kg i.p. 1 hour after dosing, shakes counted for 5 minutes
T1 construct: from tissue; host or cells: whole animal, female SD rats (in vivo)
T1 sequence (Q8R455 whole entry): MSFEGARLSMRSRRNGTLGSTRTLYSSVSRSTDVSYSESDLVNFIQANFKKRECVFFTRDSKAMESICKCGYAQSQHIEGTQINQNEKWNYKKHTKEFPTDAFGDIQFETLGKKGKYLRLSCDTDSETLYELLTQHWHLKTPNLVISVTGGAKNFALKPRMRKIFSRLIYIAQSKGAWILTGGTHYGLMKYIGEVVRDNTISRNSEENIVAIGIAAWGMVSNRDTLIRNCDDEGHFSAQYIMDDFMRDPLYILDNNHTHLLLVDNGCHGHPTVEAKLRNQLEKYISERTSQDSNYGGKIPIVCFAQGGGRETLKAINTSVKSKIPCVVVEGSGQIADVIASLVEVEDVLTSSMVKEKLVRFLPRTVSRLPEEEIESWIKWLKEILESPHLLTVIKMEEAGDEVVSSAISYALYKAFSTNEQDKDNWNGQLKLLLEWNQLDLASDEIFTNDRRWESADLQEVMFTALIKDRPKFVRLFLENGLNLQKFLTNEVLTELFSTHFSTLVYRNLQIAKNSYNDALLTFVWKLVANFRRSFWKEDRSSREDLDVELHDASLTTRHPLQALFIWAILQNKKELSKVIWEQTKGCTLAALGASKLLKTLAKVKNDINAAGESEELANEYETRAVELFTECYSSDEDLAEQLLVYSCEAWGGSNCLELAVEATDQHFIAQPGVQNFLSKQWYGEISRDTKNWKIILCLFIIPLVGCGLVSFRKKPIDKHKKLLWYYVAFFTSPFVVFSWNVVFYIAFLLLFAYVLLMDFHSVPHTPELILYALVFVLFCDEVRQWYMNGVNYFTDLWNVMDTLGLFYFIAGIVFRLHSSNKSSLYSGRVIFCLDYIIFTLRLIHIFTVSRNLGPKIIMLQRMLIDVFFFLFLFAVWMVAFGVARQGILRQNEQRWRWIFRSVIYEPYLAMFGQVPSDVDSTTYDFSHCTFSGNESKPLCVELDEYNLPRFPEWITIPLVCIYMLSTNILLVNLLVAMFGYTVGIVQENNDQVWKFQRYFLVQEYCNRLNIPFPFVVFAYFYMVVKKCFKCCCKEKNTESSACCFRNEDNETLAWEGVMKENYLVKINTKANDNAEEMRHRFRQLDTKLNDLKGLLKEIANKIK
Method in brief: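 Female SD rats received compounds orally at 0.3 to 10 mg/kg in 5% dimethylacetamide/0.5% methylcellulose. One hour later, icilin (1 mg/kg, i.p., in PEG 400) was given, and wet-dog shakes were counted for 5 min starting 5 min after icilin. Percent inhibition was calculated against vehicle-treated rats.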

[1] = tested on: overactive bladder induced by acetic acid; experiment: Confirmation test of elongation action of micturition interval of overactive bladder induced by acetic acid; format: in vivo; conditions: Rattus norvegicus, iv; urethane-anesthetized female SD rats, 1 mg/kg/mL via femoral vein, intravesical 0.25% acetic acid; interval after/before administration x100
Description: Further, TRPM8 inhibitory activity can be evaluated by the efficacy inhibiting the wet-dog shake action which is induced by the administration of Icilin, TRPM8 agonist. Furthermore, an effect on overactive bladder (OAB) can be evaluated by an elongation of micturition interval against overactive bladder induced by acetic acid in accordance with a similar method described in J. Urol., 2001, 166, 1142. Confirmation Test of Elongation Action of Micturition Interval of Overactive Bladder Induced by Acetic Acid Urethane (sigma) was dissolved into pure water by 25% w/v, and female SD rats were anesthetized with 1.25 g/kg urethane by subcutaneous administration. Cannulae were placed in femoral vein and bladder, and the bladder cannula was connected to both a syringe pump and a pressure transducer. Detrusor overactivity was induced by intravesical infusion of 0.25% acetic acid in saline at a rate of 3.6 mL/h, and intravesical pressure was monitored via pressure transducer concurrently. Test compounds were dissolved into a mixture of dimethylacetamide and saline (20:80), and were administered via, the femoral vein. Elongation of micturition interval (%) by test compound was calculated from the following formula: [an average of the three micturition interval after administration/an average of the three micturition interval before administration]×100.

% inhibition of Wet-Dog Shake (TRPM8; oral dose 0.3 mg/kg) [%]	% inhibition of Wet-Dog Shake (TRPM8; oral dose 3 mg/kg) [%]	Structure (SMILES)	response vs control in vivo at 1 mg/kg [1] [%]
99		O=C(N[C@H](Cn1nccn1)C(F)(F)CO)c1cccc(F)c1-c1cc(-c2ccc(F)cc2)[nH]n1 [Example 50-12, N-[(2R)-3,3-Difluoro-4-hydroxy-1-(2H-1,2,3-triazol-2-yl)butan-2-yl]-3-fluoro-2-[5-(4-fluorophenyl)-1H-pyrazol-3-yl]benzamide]	191
	86	CC(c1ccccn1)[C@@H](NC(=O)c1cccc(F)c1-c1cc(-c2ccc(Cl)cc2)[nH]n1)[C@H](O)CO (stereo partly drawn) [Example 54-16]	132
91		O=C(N[C@H](Cn1nccn1)C(F)(F)CO)c1cccc(F)c1-c1n[nH]c(-c2ccc(F)cc2)c1F [Example 56-1, N-[(2R)-3,3-Difluoro-4-hydroxy-1-(2H-1,2,3-triazol-2-yl)butan-2-yl]-3-fluoro-2-[4-fluoro-5-(4-fluorophenyl)-1H-pyrazol-3-yl]benzamide]	150
